# Test results: patent US20200017495A1, “NOVEL HETEROCYCLIC COMPOUNDS AND THEIR USE IN PREVENTING OR TREATING BACTERIAL INFECTIONS” (priority 2017, published 2020)
# Legend:
# Test in all cases: MIC of compounds alone and combined with antibacterials, broth microdilution (CLSI)
# Format in all cases: cell-based
# [1] = test system: Citrobacter freundii (CFR) isolates
# Procedure, shortened: (§1)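 Log-phase isolates were inoculated at a final 5.10^5 CFU/mL in cation-adjusted Mueller-Hinton broth and incubated 16-20 h at 35° C in ambient air. MIC was the lowest concentration preventing visible growth; for combinations, the antibacterial MIC was read at each compound concentration.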
# [2] = test system: Enterobacter aerogenes (EAE) isolates
# Procedure, shortened: as §1
# [3] = test system: Klebsiella oxytoca (KOX) isolates
# Procedure, shortened: as §1
# [4] = test system: Morganella morganii (MMO) isolates
# Procedure, shortened: as §1
smiles,measurement,setting,value
"C=CC1=C(C(=O)O)N2C(=O)[C@@H](NC(=O)/C(=N\OCC(=O)O)c3csc(N)n3)[C@H]2SC1 [FIX, Cefixime]",MIC,"[1]; strain CFR UFR249, genotype TEM-1, CTX-M-15",>128 µg/mL
same,MIC,"[1]; strain CFR UFR250, compound alone",>128 µg/mL
same,MIC,"[1]; strain CFR UFR250, genotype TEM-1, SHV-28, CTX-M-15",>128 µg/mL
same,MIC,"[1]; strain CFR UFR251, genotype SHV-11, VIM-1, antibiotic alone",>128 µg/mL
same,MIC ATB in combination,"[1]; strain CFR UFR251, with AF2 @ 8 μg/mL",<0.25 µg/mL
same,MIC ATB in combination,"[1]; strain CFR UFR251, with AF3 @ 8 μg/mL",<0.25 µg/mL
same,MIC ATB in combination,"[1]; strain CFR UFR251, with CLA @ 4 μg/mL",>128 µg/mL
same,MIC,"[1]; strain CFR UFR252, genotype VIM-2, antibiotic alone",>128 µg/mL
same,MIC ATB in combination,"[1]; strain CFR UFR252, with AF2 @ 8 μg/mL",>128 µg/mL
same,MIC ATB in combination,"[1]; strain CFR UFR252, with AF3 @ 8 μg/mL",>128 µg/mL
same,MIC ATB in combination,"[1]; strain CFR UFR252, with CLA @ 4 μg/mL",>128 µg/mL
same,MIC,"[1]; strain CFR UFR253, genotype TEM-1, SHV-12, OXA-48",>128 µg/mL
same,MIC ATB in combination,"[1]; strain CFR UFR253, with AF2 @ 8 μg/mL",1 µg/mL
same,MIC ATB in combination,"[1]; strain CFR UFR253, with AF3 @ 8 μg/mL",8 µg/mL
same,MIC ATB in combination,"[1]; strain CFR UFR253, with CLA @ 4 μg/mL",>128 µg/mL
same,MIC,"[1]; strain CFR UFR254, genotype VEB-1b, OXA-48, qnrA",32 µg/mL
same,MIC ATB in combination,"[1]; strain CFR UFR254, with AF2 @ 8 μg/mL",<=0.25 μg/mL
same,MIC ATB in combination,"[1]; strain CFR UFR254, with AF3 @ 8 μg/mL",0.5 µg/mL
same,MIC ATB in combination,"[1]; strain CFR UFR254, with CLA @ 4 μg/mL",16 µg/mL
same,MIC ATB in combination,"[2]; EAE 49469, AF2 @ 8 μg/mL",<0.25 µg/mL
same,MIC ATB in combination,"[2]; EAE 49469, AF3 @ 8 μg/mL",<0.25 µg/mL
same,MIC ATB in combination,"[2]; EAE 49469, CLA @ 4 μg/mL",>128 µg/mL
same,MIC ATB in combination,"[2]; EAE 200261, AF2 @ 8 μg/mL",8 µg/mL
same,MIC ATB in combination,"[2]; EAE 200261, AF3 @ 8 μg/mL",<0.25 µg/mL
same,MIC ATB in combination,"[2]; EAE 200261, CLA @ 4 μg/mL",>128 µg/mL
same,MIC ATB in combination,"[2]; EAE UFR199, AF2 @ 8 μg/mL",0.5 µg/mL
same,MIC ATB in combination,"[2]; EAE UFR199, AF3 @ 8 μg/mL",<=0.25 μg/mL
same,MIC ATB in combination,"[2]; EAE UFR199, CLA @ 4 μg/mL",16 µg/mL
same,MIC ATB in combination,"[2]; EAE UFR201, AF2 @ 8 μg/mL",<0.25 µg/mL
same,MIC ATB in combination,"[2]; EAE UFR201, AF3 @ 8 μg/mL",<0.25 µg/mL
same,MIC ATB in combination,"[2]; EAE UFR201, CLA @ 4 μg/mL",<=0.25 μg/mL
same,MIC ATB in combination,"[2]; EAE UFR202, AF2 @ 8 μg/mL",16 µg/mL
same,MIC ATB in combination,"[2]; EAE UFR202, AF3 @ 8 μg/mL",4 µg/mL
same,MIC ATB in combination,"[2]; EAE UFR207, AF2 @ 8 μg/mL",<0.25 µg/mL
same,MIC ATB in combination,"[2]; EAE UFR207, AF3 @ 8 μg/mL",<0.25 µg/mL
same,MIC ATB in combination,"[2]; EAE UFR207, CLA @ 4 μg/mL",1 µg/mL
same,MIC ATB in combination,"[2]; EAE UFR213, AF2 @ 8 μg/mL",16 µg/mL
same,MIC ATB in combination,"[2]; EAE UFR213, AF3 @ 8 μg/mL",<=0.25 μg/mL
same,MIC,"[2]; strain EAE 49469, genotype AmpC",>128 µg/mL
same,MIC,"[2]; strain EAE 200261, genotype TEM-x, AmpC",>128 µg/mL
same,MIC,"[2]; strain EAE UFR199, compound alone",>1024 µg/mL
same,MIC,"[2]; strain EAE UFR199, genotype TEM-1b, SHV-12, KPC-2, OXA-9",>1024 µg/mL
same,MIC,"[2]; strain EAE UFR201, genotype TEM-1, SHV-12, CTX-M-15",>128 µg/mL
same,MIC,"[2]; strain EAE UFR202, genotype TEM-24",>128 µg/mL
same,MIC,"[2]; strain EAE UFR213, genotype TEM-24",>128 µg/mL
same,MIC ATB in combination,"[3]; KOX UFR21, AF2 @ 8 μg/mL",2 µg/mL
same,MIC ATB in combination,"[3]; KOX UFR21, AF3 @ 8 μg/mL",4 µg/mL
same,MIC ATB in combination,"[3]; KOX UFR173, AF2 @ 8 μg/mL",<=0.25 μg/mL
same,MIC ATB in combination,"[3]; KOX UFR173, AF3 @ 8 μg/mL",<=0.25 μg/mL
same,MIC ATB in combination,"[3]; KOX UFR173, CLA @ 4 μg/mL",4 µg/mL
same,MIC ATB in combination,"[3]; KOX UFR223, AF2 @ 8 μg/mL",<0.25 µg/mL
same,MIC ATB in combination,"[3]; KOX UFR223, AF3 @ 8 μg/mL",<0.25 µg/mL
same,MIC ATB in combination,"[3]; KOX UFR223, CLA @ 4 μg/mL",<=0.25 μg/mL
same,MIC ATB in combination,"[3]; KOX UFR224, AF2 @ 8 μg/mL",<0.25 µg/mL
same,MIC ATB in combination,"[3]; KOX UFR224, AF3 @ 8 μg/mL",<0.25 µg/mL
same,MIC ATB in combination,"[3]; KOX UFR224, CLA @ 4 μg/mL",8 µg/mL
same,MIC,"[3]; strain KOX UFR21, genotype TEM-1, CTX-M-15, OXA-48",>128 µg/mL
same,MIC,"[3]; strain KOX UFR173, genotype OXY2-2",16 µg/mL
same,MIC,"[3]; strain KOX UFR223, genotype SHV-11, OXA-48",<=0.125 μg/mL
same,MIC,"[3]; strain KOX UFR224, genotype CTX-M-15, OXA-48",>128 µg/mL
same,MIC ATB in combination,"[4]; MMO 200321, AF2 @ 8 μg/mL",1 µg/mL
same,MIC ATB in combination,"[4]; MMO 200321, AF3 @ 8 μg/mL",1 µg/mL
same,MIC ATB in combination,"[4]; MMO 200321, CLA @ 4 μg/mL",32 µg/mL
same,MIC ATB in combination,"[4]; MMO UFR144, AF2 @ 8 μg/mL",1 µg/mL
same,MIC ATB in combination,"[4]; MMO UFR144, AF3 @ 8 μg/mL",0.5 µg/mL
same,MIC ATB in combination,"[4]; MMO UFR144, CLA @ 4 μg/mL",32 µg/mL
same,MIC ATB in combination,"[4]; MMO UFR240, AF2 @ 8 μg/mL",<=0.25 μg/mL
same,MIC ATB in combination,"[4]; MMO UFR240, AF3 @ 8 μg/mL",<=0.25 μg/mL
same,MIC ATB in combination,"[4]; MMO UFR240, CLA @ 4 μg/mL",8 µg/mL
same,MIC ATB in combination,"[4]; MMO UFR241, AF2 @ 8 μg/mL",2 µg/mL
same,MIC ATB in combination,"[4]; MMO UFR241, AF3 @ 8 μg/mL",0.5 µg/mL
same,MIC ATB in combination,"[4]; MMO UFR241, CLA @ 4 μg/mL",32 µg/mL
same,MIC ATB in combination,"[4]; MMO UFR242, AF2 @ 8 μg/mL",<=0.25 μg/mL
same,MIC ATB in combination,"[4]; MMO UFR242, AF3 @ 8 μg/mL",1 µg/mL
same,MIC ATB in combination,"[4]; MMO UFR242, CLA @ 4 μg/mL",64 µg/mL
same,MIC ATB in combination,"[4]; MMO UFR243, AF2 @ 8 μg/mL",0.5 µg/mL
same,MIC ATB in combination,"[4]; MMO UFR243, AF3 @ 8 μg/mL",<=0.25 μg/mL
same,MIC ATB in combination,"[4]; MMO UFR243, CLA @ 4 μg/mL",32 µg/mL
same,MIC ATB in combination,"[4]; MMO UFR244, AF2 @ 8 μg/mL",<=0.25 μg/mL
same,MIC ATB in combination,"[4]; MMO UFR244, AF3 @ 8 μg/mL",<=0.25 μg/mL
same,MIC ATB in combination,"[4]; MMO UFR244, CLA @ 4 μg/mL",8 µg/mL
same,MIC ATB in combination,"[4]; MMO UFR245, AF2 @ 8 μg/mL",1 µg/mL
same,MIC ATB in combination,"[4]; MMO UFR245, AF3 @ 8 μg/mL",<=0.25 μg/mL
same,MIC ATB in combination,"[4]; MMO UFR245, CLA @ 4 μg/mL",64 µg/mL
same,MIC ATB in combination,"[4]; MMO UFR246, AF2 @ 8 μg/mL",1 µg/mL
same,MIC ATB in combination,"[4]; MMO UFR246, AF3 @ 8 μg/mL",0.5 µg/mL
same,MIC ATB in combination,"[4]; MMO UFR246, CLA @ 4 μg/mL",64 µg/mL
same,MIC ATB in combination,"[4]; MMO UFR247, AF2 @ 8 μg/mL",<=0.25 μg/mL
same,MIC ATB in combination,"[4]; MMO UFR247, AF3 @ 8 μg/mL",<=0.25 μg/mL
same,MIC ATB in combination,"[4]; MMO UFR247, CLA @ 4 μg/mL",32 µg/mL
same,MIC,"[4]; strain MMO 200321, genotype TEM-1, CTX-M-15, OXA-1",>128 µg/mL
same,MIC,"[4]; strain MMO UFR144, genotype TEM-1, CTX-M-15",>128 µg/mL
same,MIC ATB in combination,"[4]; strain MMO UFR145, with AF2 @ 8 μg/mL",>128 µg/mL
same,MIC ATB in combination,"[4]; strain MMO UFR145, with AF3 @ 8 μg/mL",>128 µg/mL
same,MIC ATB in combination,"[4]; strain MMO UFR145, with CLA @ 4 μg/mL",>128 µg/mL
same,MIC,"[4]; strain MMO UFR240, genotype CTX-M-9",1 µg/mL
same,MIC,"[4]; strain MMO UFR241, genotype TEM-1, CTX-M-15",>128 µg/mL
same,MIC,"[4]; strain MMO UFR242, genotype TEM-52",1024 µg/mL
same,MIC,"[4]; strain MMO UFR243, genotype DHA-1",8 µg/mL
same,MIC,"[4]; strain MMO UFR244, genotype DHA-1",4 µg/mL
same,MIC,"[4]; strain MMO UFR245, genotype DHA-1",32 µg/mL
same,MIC,"[4]; strain MMO UFR246, genotype DHA-1",32 µg/mL
same,MIC,"[4]; strain MMO UFR247, genotype DHA-1",16 µg/mL
